Common to all, as to assay: ≥ marks a high value that may be exact or a test limit, other limits are often not marked, values filed in µg/mL are converted to µM
The subject of assay [1] is Pseudomonas aeruginosa ATCC BAA-427.
Assay [2] concerns Staphylococcus aureus ATCC 25923.
In assay [3] the test system is Klebsiella pneumoniae ATCC 27736.
Assay [4] concerns Staphylococcus aureus ATCC BAA-44.
Assay [5] deals with Staphylococcus aureus ATCC 29213.
The test system of assay [6] is Bacillus subtilis ATCC 6633.
For assay [7], the system named is Candida parapsilosis ATCC 22019.
For assay [8], the system named is Escherichia coli ATCC 9637.
For assay [9], the system named is Staphylococcus aureus ATCC 33592.
Assay [10] has as its system Candida albicans ATCC 10231.
Assay [11] has as its system Staphylococcus aureus ATCC 700699.
The subject of a further assay is Cryptococcus neoformans.
In assay [12] the test system is Staphylococcus aureus ATCC 700698.
Assay [13] relates to Sinorhizobium meliloti ZB314.
Assay [14] has as its system Escherichia coli NCTC 9001.
Assay [15] has as its system Brenneria salicis NCPPB 2530.
In assay [16] the test system is Serratia marcescens ATCC 17991.
Assay [17] has as its system Bacillus megaterium QMB 1551.
Assay [18] has as its system Bacillus thuringiensis serovar tenebrionis DSM 2803.
Assay [19] deals with Clavibacter michiganensis subsp. insidiosus NCPPB 1109.
Assay [20] has as its system Pseudomonas syringae pv. tomato NCPPB 1106.
The subject of the next assay is Shigella flexneri CP87.
For assay [21], the system named is Paenibacillus alvei LMG 6922.
Assay [22] relates to Bacillus subtilis NRRL B-237.
Assay [23] deals with Salmonella enterica subsp. enterica serovar Newport.
The subject of assay [24] is Salmonella typhimurium ATCC 23565.
Assay [25] deals with Agrobacterium tumefaciens DSM 3129.
Assay [26] deals with Staphylococcus aureus ATCC 43300.
Assay [27] relates to Streptococcus pneumoniae ATCC 700677.
For assay [28], the system named is Pseudomonas aeruginosa FADDI-PA070.
Assay [29] deals with Klebsiella pneumoniae ATCC 700603.
The subject of assay [30] is Acinetobacter baumannii ATCC 19606.
Assay [31] deals with Staphylococcus aureus NRS 1.
In assay [32] the test system is Klebsiella pneumoniae ATCC BAA-2146.
For assay [33], the system named is Staphylococcus aureus VRSA1.
In assay [34] the test system is Escherichia coli ATCC 25922.
The subject of assay [35] is Staphylococcus aureus NRS 17.
Assay [36] relates to Pseudomonas aeruginosa ATCC 27853.
Assay [37] has as its system Staphylococcus aureus VRSA10.
Assay [38] concerns Escherichia coli DSM 1116.
Assay [39] concerns Staphylococcus xylosus DSM 20267.
For assay [40], the system named is Franconibacter helveticus DSM 18390.
For assay [41], the system named is Bacillus subtilis DSM 347.
The test system of assay [42] is Candida tropicalis ATCC 750.
Assay [43] has as its system Candida albicans ATCC MYA-2876.

Each structure is given as a SMILES string. ≈ marks a conversion by molar mass, not a printed value. Where “and” joins values, the source holds several entries; their conditions need not be identical. Equal values may be shown once. Bounds are passed on as bounds.

What is called MIC is the least concentration at which growth counts as inhibited. Consider `CC[C@H](C)[C@H](NC(=O)[C@H](CCCN=C(N)N)NC(=O)CNC(=O)[C@H](CC(C)C)NC(=O)[C@H](CCCCN)NC(=O)[C@H](CCCCN)NC(=O)[C@H](CO)NC(=O)[C@H](Cc1ccccc1)NC(=O)[C@H](Cc1c[nH]c2ccccc12)NC(=O)[C@H](CCCCN)NC(=O)[C@@H](NC(=O)[C@@H](N)Cc1ccccc1)C(C)C)C(=O)N[C@@H](CC(C)C)C(N)=O` [FVKWFSKKLGRIL], for which the minimal inhibitory concentration (MIC) in [1] was 15 µM (≈ 24.3 µg/mL); in [2], 25 µM and 30 µM and 15.4 µM; in [3] it was 15 µM (≈ 24.3 µg/mL); in assay [4], 30 µM (≈ 48.6 µg/mL); in assay [5], over 30 µM; in assay [6] it was 15.2 µM (≈ 24.6 µg/mL). In addition, the MIC in assay [7] worked out at 30 µM (≈ 48.6 µg/mL); in assay [8] it was 12.5 µM (≈ 20.3 µg/mL); in [9] it was 30 µM (≈ 48.6 µg/mL); in [10], 30 µM (≈ 48.6 µg/mL); in assay [11] it was 30 µM (≈ 48.6 µg/mL); in the assay on Cryptococcus neoformans it was 15 µM (≈ 24.3 µg/mL). In assay [12], this molecule returned an MIC of 30 µM (≈ 48.6 µg/mL).
Turning to `CC[C@H](C)[C@H](NC(=O)[C@@H]1CCCN1C(=O)[C@H](CCCN=C(N)N)NC(=O)[C@H](CC(N)=O)NC(=O)[C@H](CC(N)=O)NC(=O)CN)C(=O)N[C@@H](Cc1ccc(O)cc1)C(=O)N[C@H](C(=O)N1CCC[C@H]1C(=O)N[C@@H](CCC(N)=O)C(=O)N1CCC[C@H]1C(=O)N[C@@H](CCCN=C(N)N)C(=O)N1CCC[C@H]1C(=O)N1CCC[C@H]1C(=O)N[C@@H](Cc1cnc[nH]1)C(=O)N1CCC[C@H]1C(=O)N[C@@H](CCCN=C(N)N)C(=O)N[C@@H](CC(C)C)C(=O)O)[C@@H](C)CC` [GNNRPIYIPQPRPPHPRL], the MIC in [13] was 0.0094 µM (≈ 0.02 µg/mL); in assay [14], 0.0942 µM (≈ 0.2 µg/mL); in assay [15], 0.0094 µM (≈ 0.02 µg/mL); in assay [16] it was at least 94.2 µM; in assay [17], at least 47.1 µM; in assay [18], at least 94.2 µM. Besides, the MIC in [19] is at least 47.1 µM; in [20] it was 0.0471 µM (≈ 0.1 µg/mL); in the assay on Shigella flexneri CP87, 0.0471 µM (≈ 0.1 µg/mL); in assay [21], at least 94.2 µM; in [22] it was at least 94.2 µM; in assay [23], 0.0942 µM (≈ 0.2 µg/mL). Also, the results for the MIC in assay [24] and in [25] were 0.0471 µM (≈ 0.1 µg/mL) and 0.0942 µM (≈ 0.2 µg/mL), respectively.
For the molecule `CC[C@H](C)[C@H](N)C(=O)N[C@@H](CC(=O)O)C(=O)N[C@@H](Cc1c[nH]c2ccccc12)C(=O)N[C@@H](CCCCN)C(=O)N[C@@H](CCCCN)C(=O)N[C@H](C(=O)N[C@@H](CC(=O)O)C(=O)N[C@@H](Cc1c[nH]c2ccccc12)C(=O)N[C@@H](CCCCN)C(=O)N[C@@H](CCCCN)C(=O)N[C@H](C(=O)N[C@@H](CO)C(=O)N[C@@H](CCCCN)C(=O)N[C@@H](CCCCN)C(=O)N[C@H](C(=O)N[C@@H](CO)C(=O)N[C@@H](CCCCN)C(=O)N[C@H](C(=O)N[C@@H](CCSC)C(=O)N[C@@H](CC(C)C)C(=O)N[C@@H](CCCCN)C(=O)N[C@@H](C)C(=O)N[C@@H](CO)C(=O)N[C@@H](CCCCN)C(=O)N[C@@H](Cc1ccccc1)C(=O)N[C@@H](CC(C)C)C(N)=O)C(C)C)[C@@H](C)O)C(C)C)C(C)C` [IDWKKVDWKKVSKKTSKVMLKASKFL], the MIC in assay [26] was over 12.8 µM; in [27] it was 12.8 µM (≈ 40 µg/mL); in [28], 12.8 µM (≈ 40 µg/mL); in assay [29] it was 9.05 µM (≈ 28.3 µg/mL); in [30] it was 0.566 µM (≈ 1.77 µg/mL); in assay [31], 12.8 µM (≈ 40 µg/mL). Further, the MIC in [32] is 2.26 µM (≈ 7.06 µg/mL); in assay [33], 12.8 µM (≈ 40 µg/mL); in assay [34], 4.53 µM (≈ 14.1 µg/mL); in [35] it was 12.8 µM (≈ 40 µg/mL); in assay [36] it was over 12.8 µM; in assay [37], 12.8 µM (≈ 40 µg/mL).
`CC(C)C[C@H](NC(=O)[C@H](CCCCN)NC(=O)[C@H](CC(C)C)NC(=O)[C@H](CCCCN)NC(=O)[C@H](CC(C)C)NC(=O)[C@@H](N)CCCCN)C(N)=O` [KLKLKL]: the MIC in assay [38], in assay [39], in [40] and in assay [41] was at least 345 µM throughout.
Consider `CC[C@H](C)[C@H](NC(=O)[C@H](Cc1ccc(O)cc1)NC(=O)[C@@H](N)CCCN=C(N)N)C(=O)N[C@@H](Cc1ccc(O)cc1)C(=O)N[C@@H](CC(C)C)C(=O)N[C@@H](CO)C(=O)NCC(=O)N[C@H](C(=O)N[C@@H](CC(=O)O)C(=O)N[C@@H](CCCN=C(N)N)C(=O)N[C@H](C(=O)N[C@H](C(=O)N[C@@H](CCCN=C(N)N)C(=O)N[C@@H](C)C(=O)N[C@@H](CCCCN)C(=O)N[C@@H](CC(C)C)C(=O)NCC(=O)N[C@@H](CCCCN)C(=O)O)[C@@H](C)CC)[C@@H](C)CC)[C@@H](C)O` [RYIYLSGTDRIIRAKLGK], for which the MIC in [42] and in assay [43] was at least 40 µM each time.

For the origin of these results see DBAASP.
